{"source": "patent US12292444B2", "about": "“Methods and compositions related to modified green fluorescent protein (GFP) with an embedded foreign peptide” (University of South Florida, priority 2020, dated 2025)", "origin": "cited, not measured here", "tested_on": "Gram-negative bacteria, such as Escherichia coli, Pseudomonas aeruginosa, and Salmonella typhimurium", "details": "Wu 1999", "data": [{"substance": "Bactenecin: Antimicrobial peptide synthesized by neutrophils, used as substitute of the central α-helix in GFP (RLCRIVSYGVIRVCRR; listed as Aequorea victoria)", "values": [{"measurement": "activity against Gram-negative bacteria", "result": "has an activity"}]}]}
